In paper PMC7576608, “Mechanisms of telomerase inhibition by oxidized and therapeutic dNTPs” (Nature Communications, 2020):
Several values for one entry are separate records, joined by “and”; a condition that tells them apart may be missing. Identical values can stand only once.

Legend:
telomerase [1] = target: T1, telomerase (Homo sapiens, UniProt O14746); experiment: Direct telomerase repeat addition assay with radiolabeled dNTPs: dNTP titration, repeat processivity R1/2; format: biochemical; set-up: made in house; anti-FLAG immunopurification, eluted with 3xFLAG peptide; settings: for Processivity R 1/2: (TTAGGG)3 primer, remaining three natural dNTPs at cellular concentration
Description: This preparation, termed super telomerase, has kinetic properties similar to endogenous telomerase (Supplementary Fig. 1)[29]–[31]. […] Repeat processivity was measured using the convention of calculating the number of repeats synthesized before half of the DNA substrates dissociate from telomerase[33] (Supplementary Fig. 2). 8-oxo-dGTP served as a control since it is an established telomerase chain terminator[12].
Fig. 2 Oxidized and therapeutic dNTPs inhibit telomerase processivity. […] The loading control (*) was a ^32P-end labeled 18-mer oligonucleotide. Numbers on the left indicate the number of added repeats; letters on the right indicate template residue. Images are representative of three independent experiments.
The telomerase assay was as described. […] Reactions containing the modified dNTPs (Trilink Biotechnologies) substituted for their natural dNTP analog are indicated in the figure legends. The reactions were started by the addition of 3 μl (~35 fmol) of immunopurified telomerase eluent, incubated at 37 °C for 1 h, then terminated with 2 μl of […] EDTA and heat inactivated at 65 °C for 20 min. ^32P-end labeled 18-mer loading control (8 fmol) was added to the terminated reactions before purification with an Illustra Microspin G-25 column (GE Healthcare). An equal volume of loading buffer (94% formamide, 0.1× TBE, 0.1% bromophenol blue, 0.1% xylene cyanol) was added to the reaction eluent from the G-25 spin column. The samples were heat denatured for 10 min at 100 °C and loaded onto a 14% denaturing polyacrylamide gel (7 M urea, 1× TBE) and electrophoresed for 90 min at constant 38 W. Samples were imaged using a Typhoon phosphorimager (GE Healthcare).
The processivity was calculated as described[40],[67]. Repeat processivity from the direct telomerase extension assays was calculated as R1/2 (equivalent to the half-time for decay in an exponential time course), which represents the median length of DNA product formed, expressed in terms of number of telomere repeats. First, the total volume counts for each product band extend by one or more telomere repeats were obtained using Image Quant TL. The volume counts were then normalized by dividing by the number of radiolabeled guanosines incorporated into the extended products based on the number of repeats added, termed corrected volume (corr vol). The “percent left behind” (%LB) was calculated for each product band by summing the counts for that product band and for every product band below (shorter products), divided by the total counts for the lane, and then multiplied by 100. The natural log of (100−%LB) was calculated and then plotted vs. repeat number for each product length. A linear regression line was fit to the data to determine the slope of the line. The R1/2 value was calculated by dividing −ln(2) by the slope of each fitted line (R1/2 = −ln(2)/slope).
Number of Repeats Number of Repeats Number of Repeats Number of Repeats
Supplementary Fig 2.Telomerase dNTP titrations and processivity calculations. Telomerase reactions were conducted with (TTAGGG) 3 primer 1 and cellular-concentration dNTPs except that the […]
The loading control (LC) was a 32P-end labeled 18-mer. Numbers on the left indicate the number of added repeats. (d) Processivity was calculated as R1/2 (see Methods). (e) The natural log of (100-%LB) was plotted vs repeat number. A straight line was fit to the data and the R1/2 was calculated by dividing –ln(2) by the slope of each line. Plots shown from one experiment. Images ( a-c) and plots ( e) are representative of, and data are mean + s. d. (d) from, three independent experiments. Source data are provided as a Source Data file.
(1 picture or pasted object on this page, not shown here)

telomerase [2] = target: T1, telomerase; experiment: Telomerase extension after insertion of modified dNTP (percent of product terminated at each template position); format: biochemical; set-up: made in house; anti-FLAG immunopurification, eluted with 3xFLAG peptide; settings: for Percent of Total Product: 50 μM each dATP, dTTP and dGTP or 6-thio-dGTP, Mean
Description: Direct telomerase assays were conducted with 5 nM ^32P-end labeled primer a and d Primer 3 (AGGGTT)3, b Primer 1 (TTAGGG)3, or c Primer 2 […]. […] Products were separated on denaturing gels. Letters on the y-axis of the graph indicate the template base; P indicates unextended 18-mer primer. Graphs represent percent of product terminated at each template position as a function of total products. Images are representative of, and data are the mean ± s.d. from, three independent experiments. Source data are provided as a Source Date file.
The reactions were started by the addition of 3 μl of immunopurified telomerase eluent, incubated at 37 °C for 1 h, then terminated with 2 μl of […] and heat inactivated at 65 °C for 20 min. An equal volume of loading buffer (94% formamide, 0.1× TBE, 0.1% bromophenol blue, 0.1% xylene cyanol) was added to the reaction eluent. The samples were heat denatured for 10 min at 100 °C and loaded onto a 14% denaturing acrylamide gel (7 M urea, 1× TBE) and electrophoresed for 90 min at constant 38 W. Samples were imaged using a Typhoon phosphorimager (GE Healthcare). Percent primer extension was calculated with ImageQuant TL 8.2 by measuring the intensity of each product band and dividing by the total radioactivity in the lane or total products, as indicated in the figure legends.

[3] = indicated dNTP at 0.5 μM, n1-n3

T1 sequence (O14746 whole entry): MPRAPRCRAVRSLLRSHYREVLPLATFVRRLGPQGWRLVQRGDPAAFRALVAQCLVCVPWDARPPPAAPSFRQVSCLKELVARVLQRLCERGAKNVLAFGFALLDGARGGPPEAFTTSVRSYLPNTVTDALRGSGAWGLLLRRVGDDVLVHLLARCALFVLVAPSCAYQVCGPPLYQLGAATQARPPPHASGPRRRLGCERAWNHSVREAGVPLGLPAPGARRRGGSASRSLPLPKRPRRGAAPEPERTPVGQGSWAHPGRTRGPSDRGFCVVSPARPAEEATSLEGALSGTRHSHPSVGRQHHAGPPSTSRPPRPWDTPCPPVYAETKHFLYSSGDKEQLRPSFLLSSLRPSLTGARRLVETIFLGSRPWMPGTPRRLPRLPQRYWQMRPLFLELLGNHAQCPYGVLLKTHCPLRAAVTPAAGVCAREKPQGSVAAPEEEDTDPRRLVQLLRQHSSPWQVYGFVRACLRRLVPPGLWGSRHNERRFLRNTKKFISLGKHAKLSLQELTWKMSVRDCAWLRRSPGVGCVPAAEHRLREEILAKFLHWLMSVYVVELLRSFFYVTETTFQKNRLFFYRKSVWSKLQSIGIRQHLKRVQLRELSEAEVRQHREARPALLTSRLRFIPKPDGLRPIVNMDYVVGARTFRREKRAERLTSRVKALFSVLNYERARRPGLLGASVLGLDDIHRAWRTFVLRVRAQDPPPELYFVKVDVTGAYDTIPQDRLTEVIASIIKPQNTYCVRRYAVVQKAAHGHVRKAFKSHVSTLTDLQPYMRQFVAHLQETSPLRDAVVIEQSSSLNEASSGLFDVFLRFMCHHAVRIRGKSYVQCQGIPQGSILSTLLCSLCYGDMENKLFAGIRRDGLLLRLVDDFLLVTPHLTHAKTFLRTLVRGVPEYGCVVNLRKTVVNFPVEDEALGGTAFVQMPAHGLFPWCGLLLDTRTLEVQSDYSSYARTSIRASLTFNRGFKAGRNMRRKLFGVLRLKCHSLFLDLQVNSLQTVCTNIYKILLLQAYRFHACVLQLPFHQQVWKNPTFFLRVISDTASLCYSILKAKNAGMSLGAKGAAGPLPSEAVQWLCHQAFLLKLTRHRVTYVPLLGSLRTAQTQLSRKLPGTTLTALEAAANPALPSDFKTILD

| Compound | Processivity R 1/2 (telomerase [1]; indicated dNTP at 0.5 μM, Mean) | Processivity R 1/2 (telomerase [1]; [3]) | Processivity R 1/2 (telomerase [1]; indicated dNTP at 1 μM, Mean) | Processivity R 1/2 (telomerase [1]; indicated dNTP at 1 μM, n1-n3) | Processivity R 1/2 (telomerase [1]; indicated dNTP at 5 μM, Mean) | Processivity R 1/2 (telomerase [1]; indicated dNTP at 5 μM, n1-n3) | Processivity R 1/2 (telomerase [1]; indicated dNTP at 24 μM, Mean) | Processivity R 1/2 (telomerase [1]; indicated dNTP at 24 μM, n1-n3) | further results |
| --- | --- | --- | --- | --- | --- | --- | --- | --- | --- |
| Nc1ncnc2c1[nH]c(=O)n2C1CC(O)C(COP(=O)(O)OP(=O)(O)OP(=O)(O)O)O1 (stereo not shown) [8-oxo-dATP] | 0 | 0 | 0 | 0 | 0 | 0 | 0 | 0 |  |
| O=c1[nH]cnc2c1ncn2C1CCC(COP(=O)(O)OP(=O)(O)OP(=O)(O)O)O1 (stereo not shown) [ddITP] | 0 | 0 | 0 | 0 | 0 | 0 | 0 | 0 |  |
| Cc1cn(C2CC(O)C(COP(=O)(O)OP(=O)(O)OP(=O)(O)O)O2)c(=O)[nH]c1=O (stereo not shown) [dTTP] | 1.28 | 1.27 and 1.42 and 1.15 | 1.90 | 1.45 and 1.97 and 2.27 | 2.06 | 1.59 and 1.96 and 2.62 | 1.95 |  | YIntercept (line, best-fit value) of ln(100-%LB) vs # telomere repeats (telomerase [1]; 0.5μM titrated dNTP): 4.06 and 3.53 and 2.25; YIntercept (line, best-fit value) of ln(100-%LB) vs # telomere repeats (telomerase [1]; 1μM titrated dNTP): 3.61 and 3.41 and 1.82; ln(100-%LB) (telomerase [1]; 1μM titrated dNTP, telomere repeat 1): 3.41 and 3.35 and 1.72; ln(100-%LB) (telomerase [1]; 5μM titrated dNTP, telomere repeat 1): 1.67 and 3.31 and 3.28; YIntercept (line, best-fit value) of ln(100-%LB) vs # telomere repeats (telomerase [1]; 25μM titrated dNTP): 3.33 and 3.39 and 1.96; ln(100-%LB) (telomerase [1]; 25μM titrated dNTP, telomere repeat 1): 3.18 and 3.21 and 2.13; ln(100-%LB) (telomerase [1]; 25μM titrated dNTP, telomere repeat 2): 2.32 and 2.36 and 1.43; ln(100-%LB) (telomerase [1]; 25μM titrated dNTP, telomere repeat 3): 1.64 and 1.63 and 0.90 |
| Cc1cn([C@H]2C[C@H](N=[N+]=[N-])[C@@H](CO[P@](=O)(O)O[P@](=O)(O)OP(=O)(O)O)O2)c(=O)[nH]c1=O [AZT-TP] | 0 | 0 | 0 | 0 | 0 | 0 | 0 | 0 |  |
| Nc1nc2c(ncn2C2CC(O)C(COP(=O)(O)OP(=O)(O)OP(=O)(O)O)O2)c(=S)[nH]1 (stereo not shown) [6-thio-dGTP] | 0 | 0 | 0 | 0 | 0 | 0 | 0 | 0 | Extension after insertion of the modified dNTP (in words) (telomerase [2]; 50 μM each dNTP, analog substituted for natural dNTP): not a chain terminator; Percent of Total Product (telomerase [2]; Fig 4b, Primer 1 (TTAGGG)3, terminated at rA3): 11.46%; Percent of Total Product (telomerase [2]; Fig 4b, Primer 1, terminated at rA4): 5.50%; Percent of Total Product (telomerase [2]; Fig 4b, Primer 1, terminated at rC1): 37.27%; Percent of Total Product (telomerase [2]; Fig 4b, Primer 1, terminated at rC2): 6.46%; Percent of Total Product (telomerase [2]; Fig 4b, Primer 1, terminated at rC6): 34.87%; Percent of Total Product (telomerase [2]; Fig 4b, Primer 1, terminated at rU5): 3.92%; Percent of Total Product (telomerase [2]; Fig 4c, Primer 2, terminated at rA3): 49.91%; Percent of Total Product (telomerase [2]; Fig 4c, Primer 2, terminated at rA4): 4.12%; Percent of Total Product (telomerase [2]; Fig 4c, Primer 2, terminated at rC1): 23.36%; Percent of Total Product (telomerase [2]; Fig 4c, Primer 2, terminated at rC2): 22.82%; Percent of Total Product (telomerase [2]; Fig 4c, Primer 2, terminated at rC6): 8.70%; Percent of Total Product (telomerase [2]; Fig 4c, Primer 2, terminated at rU5): 0.81%; Percent of Total Product (telomerase [2]; Fig 4d, Primer 3 (AGGGTT)3, terminated at rU5): 4.61%; Percent of Total Product (telomerase [2]; Fig 4d, Primer 3, terminated at rA3): 1.16%; Percent of Total Product (telomerase [2]; Fig 4d, Primer 3, terminated at rC1): 49.66%; Percent of Total Product (telomerase [2]; Fig 4d, Primer 3, terminated at rC2): 7.38%; Percent of Total Product (telomerase [2]; Fig 4d, Primer 3, terminated at rC6): 37.00% |
| Nc1nc2c([nH]c(=O)n2C2CC(O)C(COP(=O)(O)OP(=O)(O)OP(=O)(O)O)O2)c(=O)[nH]1 (stereo not shown) [8-oxo-dGTP] | 0 | 0 | 0 | 0 | 0 | 0 | 0 | 0 |  |
